# Reference: US20250339402A1, “EFFECTIVE MEANS TO MODULATE NMDA RECEPTOR-MEDIATED TOXICITY” (FUNDAMENTAL PHARMA GMBH, priority 2022, published 2025)
# Entries after “also recorded” stand apart in the source; their conditions may differ. Counter-ions that a name gives are not always drawn.
# Tested on: Primary neurons
# Assay: Reactive oxygen species (H2O2) induced neuronal death in primary neurons
# Assay type: cell-based, mouse
# Conditions: 300 μM H2O2 on DIV10; compounds added 30 min before; FIG. 3
# Protocol: Primary mouse hippocampal neurons were prepared as previously described (Bading & Greenberg, Science, 1991; 253: 912-914; Zhang et al, Neuron, 2007, 53: 549-562) and maintained in Neurobasal-A medium supplemented with 2% B27, 5 mM L-Glutamax, and 0.5% Penicillin/Streptomycin until challenged with NMDA on days in vitro (DIV) 10. Glutamate-induced cell death was analyzed in a real-time manner by monitoring nuclear localized mCherry with IncuCyte® S3 Live-Cell Analysis System (Sartorius AG, Germany). Primary neurons plated in 24 well plates were infected with rAAV-hSyn-mCherry on DIV3 and challenged with 1 μM or 20 μM glutamate on DIV10. All compounds were added to the culture 30 min prior to glutamate/NMDA insult. […] Cell deaths were quantified by analyzing the existence of nuclear localized mCheery via the Basic Analyzer with Incucyte® 2021 software, size and average intensity were used as exclusion criteria.
# Primary neurons plated in 24 well plates were infected with rAAV-hSyn-mCherry on DIV3 and challenged with 300 μM H2O2 on DIV10. […] Cell deaths were quantified by analyzing the existence of nuclear localized mCherry via the Basic Analyzer with Incucyte® 2021 software, size and average intensity were used as exclusion criteria.
row,Structure (SMILES),protection against H2O2 insult (cell survival)
1,"CCN(CCN)Cc1cccc(Cl)c1 [Compound P401, (2-aminoethyl)[(3-chlorophenyl)methyl]ethylamine, reference compound]",better protection against H2O2 insult compared to FDA-approved ALS drug Riluzole and Edaravone; also recorded: better protection against H2O2 insult than the FDA-approved ALS drug Riluzole and Edaravone

# Tested on: Primary mouse hippocampal neurons
# Assay: Excitotoxic (glutamate/NMDA-induced) cell death in primary neuronal cultures, protection index
# Assay type: cell-based
# Conditions: 10 μM; primary cultured neurons; FIG. 2
# Protocol: Primary mouse hippocampal neurons were prepared as previously described (Bading & Greenberg, Science, 1991; 253: 912-914; Zhang et al, Neuron, 2007, 53: 549-562) and maintained in Neurobasal-A medium supplemented with 2% B27, 5 mM L-Glutamax, and 0.5% Penicillin/Streptomycin until challenged with NMDA on days in vitro (DIV) 10. Glutamate-induced cell death was analyzed in a real-time manner by monitoring nuclear localized mCherry with IncuCyte® S3 Live-Cell Analysis System (Sartorius AG, Germany). Primary neurons plated in 24 well plates were infected with rAAV-hSyn-mCherry on DIV3 and challenged with 1 μM or 20 μM glutamate on DIV10. All compounds were added to the culture 30 min prior to glutamate/NMDA insult. Images were acquired following the glutamate application for 24 h with a 2 h interval, where 9-16 images were obtained via a 20×objective for each condition at each time point. Cell deaths were quantified by analyzing the existence of nuclear localized mCheery via the Basic Analyzer with Incucyte® 2021 software, size and average intensity were used as exclusion criteria.
# In order to evaluate the protective effects of various compounds, a quantification method was developed to determine each compound's protection index. The protection index (from 0.0 to 10.0) was calculated by the area above the curve (AAC) during a 24 h excitotoxic stimuli, where the cell survival was normalized to the 0 h (FIG. 2), following the equation: […]
# Where AAC represents for each compound, AACbasal represents for the basal condition without excitotoxic insult, AACVeh represents for the vehicle control with excitotoxic insult. Based on the equation, vehicle (DMSO) has a protection index at 0.0 and compound P401 of WO 2020/079244 has a protection index at 6.0 (at 10 μM).
# The inventors also performed experiments with Group A compounds at lower concentration in a 3-fold dilution matter ([…]: 3.0, 1.0, 0.3, 0.1, 0.03) and were able to achieve a similar protection effect as 10 μM compound P401, but at a lower concentration.
row,Structure (SMILES),protection (cell survival after glutamate/NMDA treatment) [%]
1,"CCN(CCN)Cc1cccc(Cl)c1 [Compound P401, (2-aminoethyl)[(3-chlorophenyl)methyl]ethylamine, reference compound]",~60

# Same assay, conditions: Mus musculus, Hippocampal neuron; third subset; excitotoxic cell death in primary neuronal cultures
row,Structure (SMILES),IC50 [nM]
1,"CC(c1scc(Br)c1F)N(CCN)C1CC1 (stereo not drawn) [Compound 297A, N′-[1-(4-bromo-3-fluoro-2-thienyl)ethyl]-N′-cyclopropyl-ethane-1,2-diamine TFA salt]",81
2,CC(c1cccc(F)c1Cl)N(CCN)C1CC1 (stereo not drawn) [Compound 246],500
3,"CCCN(CCN)C(CC)c1cccc(Cl)c1F (stereo not drawn) [Compound 262, N1-(1-(3-chloro-2-fluorophenyl)propyl)-N1-propylethane-1,2-diamine hydrochloride]",10
4,"N#Cc1cccc(C(CC(F)(F)F)N(CCN)C2CC2)c1F (stereo not drawn) [Compound 280, 3-(1-((2-aminoethyl)(cyclopropyl)amino)-3,3,3-trifluoropropyl)-2-fluorobenzonitrile hydrochloride]",36
5,"CC(C)(F)C(c1cccc(C#N)c1F)N(CCN)C1CC1 (stereo not drawn) [Compound 287, 3-[1-[2-aminoethyl(cyclopropyl)amino]-2-fluoro-2-methyl-propyl]-2-fluoro-benzonitrile TFA salt]",3
6,CC(c1c(F)cccc1Cl)N(CCN)C1CC1 (stereo not drawn) [Compound 186],800
7,"C#Cc1cccc(C(C)N(CCN)C2CC2)c1F (stereo not drawn) [Compound 295, N′-cyclopropyl-N′-[1-(3-ethynyl-2-fluoro-phenyl)ethyl]ethane-1,2-diamine TFA salt]",32
8,CCC(c1c(F)ccc(C#N)c1F)N(CCN)C1CC1 (stereo not drawn) [Compound 259],32
9,"NCCN(C1CC1)C(c1cccc(Cl)c1F)C1CCC1 (stereo not drawn) [Compound 267, N^1-((3-chloro-2-fluorophenyl)(cyclobutyl)methyl)-N^1-cyclopropylethane-1,2-diamine hydrochloride]",130
10,"CC(C)C(c1cccc(Cl)c1F)N(CCN)CC(F)F (stereo not drawn) [Compound 282, N′-[1-(3-chloro-2-fluoro-phenyl)-2-methyl-propyl]-N′-(2,2-difluoroethyl)ethane-1,2-diamine TFA salt]",51
11,CC(C)C(c1cccc(Cl)c1F)N(CCN)C1CC1 (stereo not drawn) [Compound 225],5
12,"NCCN(C1CC1)C(c1cccc(Cl)c1F)C(F)(F)C(F)(F)F (stereo not drawn) [Compound 270, N1-(1-(3-chloro-2-fluorophenyl)-2,2,3,3,3-pentafluoropropyl)-N1-cyclopropylethane-1,2-diamine TFA salt]",13
13,NCCN(Cc1cccc(Br)c1F)C1CC1 [Compound 219B],1450
14,NCCN(C1CC1)C(c1cccc(Cl)c1F)C1CCCC1 (stereo not drawn) [Compound 268],280
15,"NCCN(C1CC1)C(c1cccc(Cl)c1F)C(F)F (stereo not drawn) [Compound 275, N1-(1-(3-chloro-2-fluorophenyl)-2,2-difluoroethyl)-N1-cyclopropylethane-1,2-diamine hydrochloride]",468
16,"CCC(c1cccc(Cl)c1F)N(CCN)C1CC1 (stereo not drawn) [Compound 224, N1-(1-(3-chloro-2-fluorophenyl)propyl)-N1-cyclopropylethane-1,2-diamine hydrochloride]",26
17,"NCCN(C1CC1)C(CC(F)(F)F)c1cccc(Cl)c1F (stereo not drawn) [Compound 247, N^1-(1-(3-chloro-2-fluorophenyl)-3,3,3-trifluoropropyl)-N^1-cyclopropylethane-1,2-diamine hydrochloride]",10
18,"N#Cc1cccc(C(N(CCN)C2CC2)C(F)(F)F)c1F (stereo not drawn) [Compound 261, 3-[1-[2-aminoethyl(cyclopropyl)amino]-2,2,2-trifluoro-ethyl]-2-fluoro-benzonitrile hydrochloride]",109
19,CCC(c1cccc(Cl)c1F)N(CCN)C1CC(F)(F)C1 (stereo not drawn) [Compound 248],120
20,"CC(C)C(c1cccc(Br)c1F)N(CCN)C1CC1 (stereo not drawn) [Compound 294, N′-[1-(3-bromo-2-fluoro-phenyl)-2-methyl-propyl]-N′-cyclopropyl-ethane-1,2-diamine TFA salt]",10
21,CC(c1c(Cl)ccc(Cl)c1F)N(CCN)C1CC1 (stereo not drawn) [Compound 242],300

# Same assay, conditions: at 10 μM; scale 0.0 to 10.0; vehicle (DMSO) = 0.0
row,Structure (SMILES),protection index
1,"CCN(CCN)Cc1cccc(Cl)c1 [Compound P401, (2-aminoethyl)[(3-chlorophenyl)methyl]ethylamine, reference compound]",6.0

# Same assay, conditions: first subset; protection index from area above curve over 24 h glutamate/NMDA insult; compounds added 30 min before; 10 μM, Group A also at lower concentrations
row,Structure (SMILES),Biological Activity Rating
1,NCCN(Cc1cccc(Cl)c1F)CC1CC1 [Compound 153],"C (With a protection index between 3.0 to 5.0, provides a significantly lower protection compared to compound P401 (10 μM) at 10 μM.)"
2,NCCN(Cc1cccc(Cl)c1)CC1CC1 [Compound 134],"B (With a protection index between 5.0 to 7.0, provides a comparable protection to compound P401 (10 μM) at 10 μM.)"
3,CCN(CCN)Cc1cccc(Cl)c1F [Compound 91],"A (With a protection index over 7.0, provides a significantly better protection over compound P401 (10 μM) at 10 μM.)"
4,"C=CCC(=O)N(CCN)Cc1cccc(Cl)c1 [Compound 137, N-(2-aminoethyl)-N-[(3-chlorophenyl)methyl]but-3-enamide hydrochloride]","A (With a protection index over 7.0, provides a significantly better protection over compound P401 (10 μM) at 10 μM.)"
5,CCN(CCN)Cc1cccc(Br)c1F [Compound 175A],"A (With a protection index over 7.0, provides a significantly better protection over compound P401 (10 μM) at 10 μM.)"
6,CCN(CCN)Cc1c(F)ccc(Cl)c1F [Compound 92],"A (With a protection index over 7.0, provides a significantly better protection over compound P401 (10 μM) at 10 μM.)"
7,CSCCN(CCN)Cc1cccc(Cl)c1 [Compound 126],"B (With a protection index between 5.0 to 7.0, provides a comparable protection to compound P401 (10 μM) at 10 μM.)"
8,CCN(CCN)Cc1cc(F)cc(Cl)c1 [Compound 94],"B (With a protection index between 5.0 to 7.0, provides a comparable protection to compound P401 (10 μM) at 10 μM.)"

# Same assay, conditions: second subset; protection index from area above curve over 24 h glutamate/NMDA insult; compounds added 30 min before; 10 μM, Group A also at lower concentrations
row,Structure (SMILES),Biological Activity Rating
1,"CCN(CCN)[C@@H](C)c1cccc(Cl)c1 [Compound 177, (S)—N1-(1-(3-chlorophenyl)ethyl)-N1-ethylethane-1,2-diamine dihydrochloride]","A (With a protection index over 7.0, provides a significantly better protection over compound P401 (10 μM) at 10 μM.)"
2,"CC(c1cccc(Cl)c1F)N(CCN)C1CC1 (single isomer, unassigned; (-)) [Compound 220B, (−)-N1-(1-(3-chloro-2-fluorophenyl)ethyl)-N1-cyclopropylethane-1,2-diamine]","A++++ (With a protection index between 5.0 to 7.0, provides a comparable protection to compound P401 (10 μM) at 0.1 μM.)"
3,"CCN(CCN)[C@H](C)c1cccc(Cl)c1 [Compound 176, (R)—N1-(1-(3-chlorophenyl)ethyl)-N1-ethylethane-1,2-diamine dihydrochloride]","A (With a protection index over 7.0, provides a significantly better protection over compound P401 (10 μM) at 10 μM.)"
4,"CC(c1cccc(Cl)c1F)N(CCN)C12CC(C1)C2 (stereo not drawn) [Compound 182, N1-(bicyclo[1.1.1]pentan-1-yl)-N1-(1-(3-chloro-2-fluorophenyl)ethyl)ethane-1,2-diamine hydrochloride]","A+ (With a protection index between 5.0 to 7.0, provides a comparable protection to compound P401 (10 μM) at 3.0 μM.)"
5,"CC(c1cccc(Cl)c1F)N(CCN)C1CCCC1 (stereo not drawn) [Compound 184, N1-(1-(3-chloro-2-fluorophenyl)ethyl)-N1-cyclopentylethane-1,2-diamine dihydrochloride]","A (With a protection index over 7.0, provides a significantly better protection over compound P401 (10 μM) at 10 μM.)"

# Same assay, conditions: third subset; A++++ or above correlates with IC50; A++ and A+++ as defined in the source
row,Structure (SMILES),Biological Activity Rating
1,CC(c1cccc(F)c1Cl)N(CCN)C1CC1 (stereo not drawn) [Compound 246],A+++
2,CC(c1c(F)cccc1Cl)N(CCN)C1CC1 (stereo not drawn) [Compound 186],A+++
3,NCCN(Cc1cccc(Br)c1F)C1CC1 [Compound 219B],A++
4,"NCCN(C1CC1)C(c1cccc(Cl)c1F)C(F)F (stereo not drawn) [Compound 275, N1-(1-(3-chloro-2-fluorophenyl)-2,2-difluoroethyl)-N1-cyclopropylethane-1,2-diamine hydrochloride]",A+++
5,CC(c1c(Cl)ccc(Cl)c1F)N(CCN)C1CC1 (stereo not drawn) [Compound 242],A+++
